Structures can show the parent of a compound that is named as a salt. The source made the active and inactive calls. The rule behind the calls is not given here.
Experiment: Cytotoxicity activity against human HepG2 cells assessed by CellTiter-Glo luminescent cell viability assay.
Format: toxicity, cell-based
Design: assay stage confirmatory assay, source tissue liver
Details: HepG2 cells, read-out: IC50 relative

Compound | CC50
C=CC(=O)N1CCC(Oc2cc3c(Nc4ccc(Cl)c(Cl)c4F)ncnc3cc2OC)CC1 [POZIOTINIB] | 18.7 µM (inactive)
C#CCC(Cc1cnc2nc(N)nc(N)c2n1)c1ccc(C(=O)N[C@@H](CCC(=O)O)C(=O)O)cc1 (stereo partly specified) [PRALATREXATE] | < 0.1 µM (active)
CO[C@]1(C(=O)N[C@@H](C)c2ccc(-n3cc(F)cn3)nc2)CC[C@H](c2nc(C)cc(Nc3cc(C)[nH]n3)n2)CC1 [PRALSETINIB] | 9.3 µM (active)
COc1cc2nc(N3CCN(C(=O)c4ccco4)CC3)nc(N)c2cc1OC [PRAZOSIN HYDROCHLORIDE] | 6.6 µM (active)
C=CC(=O)N1CCN(CCCn2c(=O)c(-c3c(Cl)c(OC)cc(OC)c3Cl)cc3cnc(NC)nc32)CC1 [PRN-1371] | 9.6 µM (active)
O=C(CCN1CCC(c2ccccc2)C1)c1ccc2c(c1)OCCO2 (stereo unspecified) [PROROXAN HYDROCHLORIDE] | 8.4 µM (active)
CNCCCC1c2ccccc2C=Cc2ccccc21 [PROTRIPTYLINE HYDROCHLORIDE] | 8.9 µM (active)
CC(C)[C@H](CO)Nc1nc(Nc2cccc(Cl)c2)c2ncn(C(C)C)c2n1 [PURVALANOLA] | 14.4 µM (active)
CC(C)(C)c1ccc(CSc2cnn(C(C)(C)C)c(=O)c2Cl)cc1 [PYRIDABEN] | 0.3 µM (active)
CCc1nc(N)nc(N)c1-c1ccc(Cl)cc1 [PYRIMETHAMINE] | 6 µM (active)
[O-][n+]1ccccc1S [PYRITHIONE] | 1.1 µM (active)
CCN(CC)CCCC(C)Nc1c2ccc(Cl)cc2nc2ccc(OC)cc12 (stereo unspecified) [QUINACRINE DIHYDROCHLORIDE] | 1.1 µM (active)
Cc1cnc(NC(=O)Nc2cc(Br)c(C)cc2OC[C@@H]2CNCCO2)cn1 [RABUSERTIB] | 5.9 µM (active)
Cn1c(Nc2ccc(C(F)(F)F)cc2)nc2cc(Oc3ccnc(-c4ncc(C(F)(F)F)[nH]4)c3)ccc21 [RAF-265] | 1.5 µM (active)
CC(C)(C)Cn1c(N)nc2ccc(-c3[nH]c(C(C)(C)C)nc3-c3ccc(F)cc3)nc21 [RALIMETINIB MESYLATE] | 13.2 µM (active)
Cn1nccc1Nc1nccc(-c2ccn([C@H](CO)c3ccc(Cl)c(F)c3)c(=O)c2)n1 [RAVOXERTINIB] | 0.7 µM (active)
COc1cc(F)c(F)c(Nc2ccc(I)cc2F)c1NS(=O)(=O)C1(C[C@H](O)CO)CC1 [REFAMETINIB] | 0.1 µM (active)
CNC(=O)c1cc(Oc2ccc(NC(=O)Nc3ccc(Cl)c(C(F)(F)F)c3)c(F)c2)ccn1 [REGORAFENIB] | 1.7 µM (active)
C[C@H]1CNC(=O)c2cnn3ccc(nc23)N[C@H](C)c2cc(F)ccc2O1 [REPOTRECTINIB] | 3.7 µM (active)
COC(=O)[C@H]1[C@H]2C[C@@H]3c4[nH]c5cc(OC)ccc5c4CCN3C[C@H]2C[C@@H](OC(=O)c2cc(OC)c(OC)c(OC)c2)[C@@H]1OC [RESERPINE] | 11.8 µM (active)
CN(CCN1CCC(OC(=O)Nc2ccccc2-c2ccccc2)CC1)C(=O)c1ccc(CN2CCC(C(N)=O)CC2)cc1 [REVEFENACIN] | 13.2 µM (active)
COc1ccc(F)c(F)c1C(=O)c1cnc(NC2CCN(S(C)(=O)=O)CC2)nc1N [RG-547] | 0.5 µM (active)
COCCN1CCN(Cc2ccc(-c3n[nH]c4c3C(=O)c3c(NC(=O)NN5CCOCC5)cccc3-4)cc2)CC1 [RGB-286638] | 0.2 µM (active)
O=C(CCCCCCNC(=O)c1cnc(N(c2ccccc2)c2ccccc2)nc1)NO [RICOLINOSTAT] | 3.5 µM (active)

Compound | CC50
Cc1cc(/C=C/C#N)cc(C)c1Nc1ccnc(Nc2ccc(C#N)cc2)n1 [RILPIVIRINE] | 11 µM (inactive)
CCOc1cc(C(C)(C)C)ccc1C1=N[C@@](C)(c2ccc(Cl)cc2)[C@@](C)(c2ccc(Cl)cc2)N1C(=O)N1CCN(CCCS(C)(=O)=O)CC1 [RO-5045337] | 6.3 µM (active)
C[C@@H](OC[C@@]1(c2ccccc2)CC[C@]2(CCC(=O)N2)CN1)c1cc(C(F)(F)F)cc(C(F)(F)F)c1 [ROLAPITANT] | 8.9 µM (active)
C=C(C)[C@H]1Cc2c(ccc3c2O[C@@H]2COc4cc(OC)c(OC)cc4[C@@H]2C3=O)O1 [ROTENONE] | 0.5 µM (active)
O=C(N/N=C/c1ccccc1O)c1ccncc1 [SALINAZID] | 9.5 µM (active)
OCc1cc(C(O)CNCCCCCCOCCCCc2ccccc2)ccc1O (stereo unspecified) [SALMETEROL] | 6.6 µM (active)
CC(C)n1nc(-c2ccc3oc(N)nc3c2)c2c(N)ncnc21 [SAPANISERTIB] | 0.2 µM (active)
Cn1cc(-c2cnn3c(N)c(Br)c([C@@H]4CCCNC4)nc23)cn1 [SCH-900776] | 10.9 µM (active)
CC[C@H](CO)Nc1nc(NCc2ccccc2)c2ncn(C(C)C)c2n1 [SELICICLIB] | 7.8 µM (active)
Cc1cc(F)c(C(=O)Nc2cccc(-c3nncn3C(C)C)n2)cc1-n1cnc(C2CC2)c1 [SELONSERTIB] | 12.3 µM (active)
O=C1NCCN1CCN1CCC(c2cn(-c3ccc(F)cc3)c3ccc(Cl)cc23)CC1 [SERTINDOLE] | 2.7 µM (active)
CN1CCC(CNc2ccc3ncc(-c4cccc(OC(F)(F)F)c4)n3n2)CC1 [SGI-1776] | 1.5 µM (active)
CCC(C)(C)C(=O)O[C@H]1C[C@@H](C)C=C2C=C[C@H](C)[C@H](CC[C@@H]3C[C@@H](O)CC(=O)O3)[C@H]21 [SIMVASTATIN] | 17.1 µM (inactive)
CO[C@H]1C[C@@H]2CC[C@@H](C)[C@@](O)(O2)C(=O)C(=O)N2CCCC[C@H]2C(=O)O[C@H]([C@H](C)C[C@@H]2CC[C@@H](O)[C@H](OC)C2)CC(=O)[C@H](C)/C=C(\C)[C@@H](O)[C@@H](OC)C(=O)[C@H](C)C[C@H](C)/C=C/C=C/C=C/1C [SIROLIMUS] | 17.5 µM (inactive)
COCCNCc1ccc(-c2cc3nccc(Oc4ccc(NC(=O)C5(C(=O)Nc6ccc(F)cc6)CC5)cc4F)c3s2)nc1 [SITRAVATINIB] | 4.6 µM (active)
O=C(Nc1cccc(Cl)c1)Nc1ncc(CCNc2ncnc3ccsc23)s1 [SNS-314 MESYLATE] | 10.1 µM (active)
CC1(C)CC(=O)c2c(C(F)(F)F)nn(-c3ccc(C(N)=O)c(N[C@H]4CC[C@H](O)CC4)c3)c2C1 [SNX-2112] | < 0.1 µM (active)
Cc1c(C(=O)Nc2ccc(N3C[C@@H](C)O[C@@H](C)C3)nc2)cccc1-c1ccc(OC(F)(F)F)cc1 [SONIDEGIB] | 37.3 µM (inactive)
C=CC(=O)Nc1cccc(Nc2nc(Nc3ccc(OCCOC)cc3)ncc2F)c1 [SPEBRUTINIB] | 1.3 µM (active)
CCCCCCCCCCCCC/C=C/[C@@H](O)[C@@H](N)CO [SPHINGOSINE] | 11.2 µM (active)
CCOC(=O)N1CCC(CN(Cc2ccc(Cl)cc2)Cc2ccc([N+](=O)[O-])s2)C1 (stereo unspecified) [SR9009] | 24.4 µM (inactive)
N#Cc1cnc(Nc2cc(NC[C@H]3CNCCO3)c(C(F)(F)F)cn2)cn1 [SRA-737] | 7.2 µM (active)
COc1ccc2c(c1)/C(=C/c1cnc[nH]1)C(=O)N2 [SU-9516] | 8.9 µM (active)
Clc1ccc(CSC(Cn2ccnc2)c2ccc(Cl)cc2Cl)cc1 (stereo unspecified) [SULCONAZOLE NITRATE] | 14.9 µM (inactive)

Compound | CC50
O=S(=O)(c1ccccc1)N(CC(F)(F)F)c1ccc(C(O)(C(F)(F)F)C(F)(F)F)cc1 [T091317] | 13.4 µM (inactive)
CC(C)(O)CC(=O)NCCn1ccc2ncnc(Nc3ccc(Oc4cccc(C(F)(F)F)c4)c(Cl)c3)c21 [TAK-285] | 10.5 µM (active)
Cn1c(=O)c(F)c(Nc2ccc(I)cc2F)c2c(=O)n(C[C@@H](O)CO)cnc21 [TAK-733] | < 0.1 µM (active)
CCC(CC)C(c1ccc(Nc2nc3ccccc3s2)cc1)n1cncn1 (stereo unspecified) [TALAROZOLE] | 14.4 µM (inactive)
CN[C@H](C(=O)N[C@H](C(=O)N(C)[C@H](/C=C(\C)C(=O)O)C(C)C)C(C)(C)C)C(C)(C)c1ccccc1 [TALTOBULIN] | 0.2 µM (active)
Cn1c(C#N)ccc1-c1ccc2c(c1)C(C)(C)OC(=S)N2 [TANAPROGET] | 4.6 µM (active)
Cc1coc2c1C(=O)C(=O)c1c-2ccc2c1CCCC2(C)C [TANSHINONE IIA] | 5 µM (active)
CC(C)c1c(O)cc(/C=C/c2ccccc2)cc1O [TAPINAROF] | 8.9 µM (active)
Cc1nc(-c2cn3c(n2)-c2ccc(-c4cnn(C(C)(C)C(N)=O)c4)cc2OCC3)n(C(C)C)n1 [TASELISIB] | 2.1 µM (active)
COc1cc([C@@H]2c3cc4c(cc3[C@@H](O[C@@H]3O[C@@H]5CO[C@@H](c6cccs6)O[C@H]5[C@H](O)[C@H]3O)[C@H]3COC(=O)[C@H]23)OCO4)cc(OC)c1O [TENIPOSIDE] | 6.5 µM (active)
CN1CCC(COc2cnc(-c3cccc(Cn4nc(-c5cccc(C#N)c5)ccc4=O)c3)nc2)CC1 [TEPOTINIB] | 3.4 µM (active)
CC(C)(C)c1ccc(C(O)CCCN2CCC(C(O)(c3ccccc3)c3ccccc3)CC2)cc1 (stereo unspecified) [TERFENADINE] | 3.1 µM (active)
CSc1ccc2c(c1)N(CCC1CCCCN1C)c1ccccc1S2 (stereo unspecified) [THIORIDAZINE] | 3.8 µM (active)
COc1cc2nccc(Oc3ccc(NC(=O)Nc4cc(C)on4)c(Cl)c3)c2cc1OC [TIVOZANIB] | 6.7 µM (active)
Cc1ccc(O)c([C@H](CCN(C(C)C)C(C)C)c2ccccc2)c1 [TOLTERODINE TARTRATE] | 14.2 µM (active)
CCOC(=O)N1c2ccc(C(F)(F)F)cc2[C@@H](N(Cc2cc(C(F)(F)F)cc(C(F)(F)F)c2)C(=O)OC)C[C@H]1CC [TORCETRAPIB] | 6.4 µM (active)
Cc1ccc(S(=O)(=O)N[C@@H](Cc2ccccc2)C(=O)CCl)cc1 [TPCK] | 7.9 µM (active)
CC(=O)Nc1cccc(-n2c(=O)n(C3CC3)c(=O)c3c(Nc4ccc(I)cc4F)n(C)c(=O)c(C)c32)c1 [TRAMETINIB] | < 0.1 µM (active)
NC(=S)N/N=C/c1ncccc1N [TRIAPINE] | 5.3 µM (active)
O=C(Nc1ccc(Cl)cc1)Nc1ccc(Cl)c(Cl)c1 [TRICLOCARBAN] | 42.9 µM (inactive)
COc1cc(NCc2ccc3nc(N)nc(N)c3c2C)cc(OC)c1OC [TRIMETREXATE] | 1.7 µM (active)
CC(C)[C@]12O[C@H]1[C@@H]1O[C@]13[C@]1(O[C@H]1C[C@H]1C4=C(CC[C@@]13C)C(=O)OC4)[C@@H]2O [TRIPTOLIDE] | < 0.1 µM (active)

Reference: ChEMBL document CHEMBL5303711, “ECBD screening data for assay EOS300108” (2023)
